Ki data for 6 molecules are collected here from ChEMBL document CHEMBL1141229, “On the use of nonfluorescent dye labeled ligands in FRET-based receptor binding studies” (J Med Chem, 2005).

This assay deals with Muscarinic acetylcholine receptor M1 (Homo sapiens, UniProt P11229). As to the kind of experiment: Displacement of [3H]QNB from EGFP(delta-17)human M1 receptor expressed in HEK cells. Type of assay: cell-based. Particulars: hek293. (Displacement assays read how much labelled ligand stays bound in the presence of the test substance.)
Muscarinic acetylcholine receptor M1, sequence (P11229 whole entry, looked up): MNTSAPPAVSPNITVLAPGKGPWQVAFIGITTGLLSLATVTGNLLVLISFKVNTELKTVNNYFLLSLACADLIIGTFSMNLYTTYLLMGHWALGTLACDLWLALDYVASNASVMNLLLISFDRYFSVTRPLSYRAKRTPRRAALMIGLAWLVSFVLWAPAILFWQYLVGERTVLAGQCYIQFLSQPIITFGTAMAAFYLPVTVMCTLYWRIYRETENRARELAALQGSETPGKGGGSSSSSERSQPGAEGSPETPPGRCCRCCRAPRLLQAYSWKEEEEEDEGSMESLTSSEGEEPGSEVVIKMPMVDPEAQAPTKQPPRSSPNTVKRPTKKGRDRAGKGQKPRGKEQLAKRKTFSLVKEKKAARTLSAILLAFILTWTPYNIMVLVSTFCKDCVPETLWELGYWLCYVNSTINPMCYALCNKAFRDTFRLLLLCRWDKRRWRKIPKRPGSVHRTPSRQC
As for `CCN1/C(=C/C=C/c2ccc3cc(NC(=O)CCCCC(=O)O)ccc3[n+]2CC)C=Cc2ccccc21`, the Ki (usually a measure of affinity in units of concentration, obtained from inhibition or displacement) is over 10000 nM.
With `O=C(CCCCCNC(=O)CCc1ccc2n1[B-](F)(F)[N+]1=C(c3cccs3)C=CC1=C2)NCCCCN1CCN(CC(=O)N2c3ccccc3C(=O)Nc3cccnc32)CC1` the figure was 69.7 nM; with `CCN(CC)c1ccc2c(-c3ccc(S(=O)(=O)NCCCCCC(=O)NCCOCCOCCN4CCN(CC(=O)N5c6ccccc6C(=O)Nc6cccnc65)CC4)cc3S(=O)(=O)[O-])c3ccc(=[N+](CC)CC)cc-3oc2c1`, 53.5 nM.
The same measure for `CCN1/C(=C/C=C/c2ccc3cc(NC(=O)CCCCC(=O)NCCOCCOCCN4CCN(CC(=O)N5c6ccccc6C(=O)Nc6cccnc65)CC4)ccc3[n+]2CC)C=Cc2ccccc21`: 29.4 nM; for `CCN(CC)c1ccc([C+](c2ccc(N(CC)CC)cc2)c2ccc(S(=O)(=O)NCCCCCC(=O)O)cc2S(=O)(=O)[O-])cc1`: over 10000 nM; for `CCN(CC)c1ccc([C+](c2ccc(N(CC)CC)cc2)c2ccc(S(=O)(=O)NCCCCCC(=O)NCCOCCOCCN3CCN(CC(=O)N4c5ccccc5C(=O)Nc5cccnc54)CC3)cc2S(=O)(=O)[O-])cc1`: 189 nM.
